One assay addresses T1, Gq proteins (Homo sapiens, UniProt P50148).
T1 construct: Native cell membrane preparations from rat brain cortex and human blood platelets; host or cells: human platelets (intact suspension or membrane preparation)
T1 sequence (P50148 1-359): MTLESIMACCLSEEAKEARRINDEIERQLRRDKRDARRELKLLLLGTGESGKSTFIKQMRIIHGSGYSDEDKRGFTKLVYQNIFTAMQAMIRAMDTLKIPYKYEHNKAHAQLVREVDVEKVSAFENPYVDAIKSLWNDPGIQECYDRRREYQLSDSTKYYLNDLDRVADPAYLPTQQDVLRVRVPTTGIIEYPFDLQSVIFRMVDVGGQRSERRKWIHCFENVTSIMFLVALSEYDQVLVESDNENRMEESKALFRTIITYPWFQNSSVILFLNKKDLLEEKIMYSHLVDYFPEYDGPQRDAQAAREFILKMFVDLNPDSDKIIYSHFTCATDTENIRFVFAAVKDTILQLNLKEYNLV
The assay is described as follows: Competition binding at human platelet membrane preparations. The following applies: for inhibition or modulation of [^3H]PSB‐15900 binding by G protein inhibitors: concentrations up to 100 μM, preincubation for 3 hr. On the procedure:
Apheresis‐purified human thrombocyte‐plasma concentrates were centrifuged (1,000 g at 4°C for 10 min), and the supernatant was decanted and centrifuged again (at 48,400 g, 4°C, for 60 min). The supernatant was kept and used as platelet‐poor plasma for control experiments; the formed pellet was resuspended in buffer 1 (50‐mM Tris–HCl, 5‐mM EDTA, and 150‐mM NaCl) and centrifuged at 48,400 g, 4°C for 60 min. The supernatant was discarded again and the pellet was resuspended in buffer 2 (5‐mM Tris–HCl and 5‐mM EDTA). The cell suspension was homogenized using an Ultra‐Turrax® (IKA Laborechnik, Staufen, Germany) for 1 min at a speed level of 4, subsequently transferred into cryovials, and stored at −80°C before use (the preparation is stable for several months). For radioligand binding assays, 50 μg of protein per vial was used, determined by the method of Bradford (Bio‐Rad Protein Assay).
The experiments were performed in 50‐mM Tris–HCl buffer, pH 7.4. The final assay volume of 200 μl contained 5 μl of test compound in DMSO, 50 μl of [^3H]PSB‐15900 or [^3H]PSB‐16254, respectively, in buffer, 5 nM of final concentration, and 100 μl of human platelet membrane preparation (50 μg of protein) or intact human platelets (7.5 × 10^6 cells/vial). Non‐specific binding was determined in the presence of 5‐μM FR. The incubation was started by the addition of membrane preparation and was performed at 37°C for 1 hr with gentle shaking. It was terminated by rapid vacuum filtration through GF/C glass‐fibre filters using a Brandel 24‐well harvester. The filters were rinsed three times with approximately 3 ml each of ice‐cold Tris–HCl buffer, 50 mM, pH 7.4 containing 0.1% Tween 20 and 0.1% BSA, to separate bound from free radioligand. The filters were punched out and transferred to scintillation vials. Luma Safe® scintillation cocktail (2.5 ml) was added, and after 6 hr of incubation, the samples were counted for 1 min each, using a liquid scintillation counter (counting efficiency 53%). Experiments in the presence of GTP were additionally performed after preincubation of the membrane preparation with GTP for 1 hr. pIC50 and pKi values were calculated using equations for one‐site competition as implemented in GraphPad Prism 6.01 (GraphPad Inc., La Jolla, CA, USA).

Assay [1] concerns Gq signalling via endogenously expressed M3 receptor. The assay is described as follows: Calcium mobilization assay, carbachol-induced (M3 receptor) in 1321N1 astrocytoma cells. The class given is cell-based, human. How it is done: (§1) The functional activity of YM, FR, and Ebselen as Gq protein inhibitors was determined by assessing their ability to antagonize ADP‐induced calcium mobilization in 1321N1 astrocytoma cells stably transfected with the human P2Y1 receptor, which is a Gq‐coupled receptor. In addition, the compounds' inhibitory effects on Carbachol‐induced calcium mobilization were studied in the same cell line, which endogenously express the Gq‐coupled muscarinic M3 ACh receptor. The assays were performed according to a previously described procedure (Rafehi et al., 2017) using a NOVOstar microplate reader (BMG Labtech, Offenburg, Germany).
For orientation: Calcium assays in cells follow changes in intracellular calcium, usually with a dye or a luminescent sensor.

Assay [2] concerns Gq signalling via recombinantly expressed human P2Y1 receptor. The assay is described as follows: Calcium mobilization assay, ADP-induced (P2Y1 receptor) in 1321N1 astrocytoma cells. It is filed as cell-based. How it is done: as §1
The subject of assay [3] is Gq signalling (IP1 production) via Dq. The assay is described as follows: IP1 assay in brown preadipocytes expressing Gq-coupled designer GPCR (Dq), CNO. The settings on record: Ebselen 50 μM. The class given is cell-based, mouse. On the procedure: (§2) Intracellular concentrations of the second messenger IP1 in brown preadipocytes were quantified using the HTRF‐IP1 kit (Cisbio Bioassays) following the manufacturer's instructions. […] For ET‐1 experiments, non‐transduced preadipocytes were used. Cells were cultivated for 48 hr in GM (37°C, 5% CO2). For the assay, cells were trypsinized, and cell pellet was washed with PBS. Cell pellet was then resuspended in stimulation buffer containing 50‐mM LiCl and transferred to a 384‐well microtitre plate at a density of 100,000 cells per well in 7 μl of stimulation buffer. After 10 min of incubation, 3.5 μl of stimulation buffer containing inhibitors (50 μM of Ebselen, 1 μM of FR) were added for 1 hr followed by addition of 3.5 μl of stimulation buffer containing agonists (ET‐1, 10 nM; CNO, 10 μM) for 30 min; 3 μl of IP1‐d2 conjugate followed by 3 μl of europium cryptate‐labelled anti‐IP1 antibody dissolved in lysis buffer were added to the cells. After a further dark incubation of 1 hr at room temperature, time‐resolved fluorescence was measured at 620 and 665 nm with the EnSpire (Perkin Elmer) multimode plate reader.

Assay [4] concerns Gq signalling (IP1 production) induced by ET‐1. As to the kind of experiment: IP1 assay in brown preadipocytes, ET-1. The class given is cell-based, mouse. The following applies: Ebselen 50 μM pretreatment, ET‐1 10 nM. On the procedure: as §2
The subject of assay [5] is primary murine brown adipocytes. The assay is described as follows: Differentiation of primary murine brown adipocytes (Oil Red O, UCP-1, PPARγ). The class given is cell-based, mouse. The settings on record: Ebselen 50 μM, 9 days. How it is done:
Ten‐ to 12‐week‐old pregnant wild‐type C57Bl6/J mice were purchased from Charles River and housed in pathogen‐free environment under a 12‐hr light/12‐hr dark cycle having free access to standard rodent diet and water. Brown adipose tissue (BAT)‐derived mesenchymal stem cells were isolated from interscapular BAT of newborn wild‐type mice and further cultured as previously described (Klepac et al., 2016). Specifically, 170,000 cells per well were seeded in growth medium (GM; DMEM supplemented with 10% FBS and 1% penicillin–streptomycin mixture from Sigma‐Aldrich) in a six‐well plate (Day −4); 48 hr later (Day −2), GM was replaced by differentiation medium (DM), which is GM supplemented with 20‐nM insulin and 1‐nM triiodothyronine. At Day 0, cells were treated for 48 hr with BAT induction medium (DM supplemented with 0.5‐mM isobutylmethylxanthine and 1‐μM dexamethasone). For the next 5 days, cells were treated with DM that was replenished every second day. The indicated treatments were added from Day −2 to Day +7 for 9 days to the media, endothelin‐1 (ET‐1; Tocris, 10 nM), or Ebselen (50 μM). Ebselen was added 3 hr prior to ET‐1 treatment. On Day +7, differentiation of cells into mature adipocytes was analysed using Oil Red O staining of lipid droplets. Mature brown adipocytes were washed with PBS and then fixed in 4% paraformaldehyde. […]

For `N[C@@H](CS)C(=O)N1CCn2cc(-c3ccccc3)nc2[C@@H]1CC1CCCCC1` [BIM‐46174], the “inhibition or modulation of [^3H]PSB‐15900 binding by G protein inhibitors” value at Gq proteins was “did not show any inhibition or modulation”.
For `N[C@@H](CSSC[C@H](N)C(=O)N1CCn2cc(-c3ccccc3)nc2[C@@H]1CC1CCCCC1)C(=O)N1CCn2cc(-c3ccccc3)nc2[C@@H]1CC1CCCCC1` [BIM‐46187], the “inhibition or modulation of [^3H]PSB‐15900 binding by G protein inhibitors” value on Gq proteins is “did not show any inhibition or modulation”.
On to `O=c1c2ccccc2[se]n1-c1ccccc1` [Ebselen], for which the Ki on Gq proteins (versus [^3H]PSB‐15900 (5 nM), human platelet membranes, 37°C, read-out: pKi (converted)) was 9.33 µM. Further, the “extent of block of carbachol‐induced calcium mobilization” value in assay [1] is “completely blocked”. Also, the IC50 in assay [1] (Homo sapiens, versus Carbachol (EC80), M3 receptor, read-out: pIC50, inhibition of calcium mobilization (converted)) was 4.37 µM; in assay [2] (Homo sapiens, versus ADP (EC80), P2Y1 receptor, 1321N1 astrocytoma cells, read-out: pIC50, inhibition of calcium mobilization (converted)), 2.34 µM. In addition, the “extent of block of ADP‐induced calcium mobilization” value in assay [2] (recombinant 1321N1 astrocytoma cells) was “completely blocked”. The “effect on CNO‐induced increase in IP1 levels” value in assay [3] (CNO 10 μM, Gq‐DREADD expressing preadipocytes) is recorded as “significantly reduced”. Further, the “effect on basal IP1 levels” value in assay [3] (absence of agonist (Ctrl), acute treatment) was “did not affect”. The “effect on ET‐1‐induced IP1 production” value in assay [4] is on record as “attenuated”. Moreover, in assay [5], the “effect on differentiation of brown adipocytes” value is given as “enhanced”. The “effect on ET‐1‐induced inhibition of brown adipogenesis” value in assay [5] (ET‐1 10 nM) is recorded as “rescued”.
Turning to `Nc1nc2c(ncn2[C@@H]2O[C@H](COP(=O)(O)OP(=O)(O)OP(=O)(O)O)[C@@H](O)[C@H]2O)c(=O)[nH]1` [GTP], the “modulation of [^3H]PSB‐15900 binding by nucleotides” value at Gq proteins (100 μM and 1 mM, human platelet membranes, 5 nM radioligand) was “not allosterically modulated”.
